According to patent EP4782450A1, “NOVEL SKELETAL DERIVATIVE EFFECTIVE FOR HER2 MUTATION, AND PHARMACEUTICAL COMPOSITION COMPRISING SAME” (Hanmi Pharm. Co., Ltd., priority 2023, dated 2025):
Read-outs that look alike come from different tables or passages of the source.

Columns and labels:
Ba/F3 HER2 A775insYVMA = assay: Growth inhibition of Ba/F3 cells engineered to overexpress HER2 A775_G776insYVMA (CellTiter-Glo luminescence); assay type: cell-based; details: concentrations 1000 to 0.32 nM, read-out: Ba/F3 HER2^YVMA GI50 class
Method in brief: (§1)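 Ba/F3 cells overexpressing HER2 A775_G776insYVMA (1000–0.32 nM) or wild-type EGFR (10000–8 nM) treated 72 h at 37°C in RPMI/10% FBS. Viability by CellTiter-Glo luminescence; GI50 by nonlinear regression with untreated growth set at 100%.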

[1] = test system: wild-type EGFR overexpressing Ba/F3 cells; assay: Growth inhibition of Ba/F3 cells engineered to overexpress wild-type EGFR (CellTiter-Glo luminescence); assay type: cell-based; details: concentrations 10000 to 8 nM, read-out: Ba/F3 EGFR^WT GI50 class
Method in brief: as §1

Molecule: C=CC(=O)N(C)C/C=C/c1ccc2ncnc(Nc3cc(C)c(Oc4ccc5c(c4)ncn5C)cc3OC)c2n1 [Example 54, (E)-N-(3-(4-((2-methoxy-5-methyl-4-((1-methyl-1H-benzo[d]imidazol-5-yl)oxy)phenyl)amino)pyrido[3,2-d]pyrimidin-6-yl)allyl)-N-methylacrylamide]
- GI50 (Ba/F3 HER2 A775insYVMA; Mus musculus, BaF3, 72 hours): < 100 nM
- GI50 ([1]; Mus musculus, BaF3, 72 hours): > 5000 nM

Molecule: C=CC(=O)NC/C=C/c1ccc2ncnc(Nc3ccc(Oc4cnc5c(c4)ncn5C)c(C)c3)c2n1 [Example 34, (E)-N-(3-(4-((3-methyl-4-((3-methyl-3H-imidazo[4,5-b]pyridin-6-yl)oxy)phenyl)amino)pyrido[3,2-d]pyrimidin-6-yl)allyl)acrylamide]
- GI50 (Ba/F3 HER2 A775insYVMA; Mus musculus, BaF3, 72 hours): < 100 nM
- GI50 ([1]; Mus musculus, BaF3, 72 hours): > 5000 nM

Molecule: C=CC(=O)N1CC(/C=C/c2ccc3ncnc(Nc4ccc(Oc5ccc6c(c5)ncn6C)c(C)c4)c3n2)C1 [Example 28, (E)-1-(3-(2-(4-((3-methyl-4-((1-methyl-1H-benzo[d]imidazol-5-yl)oxy)phenyl)amino)pyrido[3,2-d]pyrimidin-6-yl)vinyl)azetidin-1-yl)prop-2-en-1-one]
- GI50 (Ba/F3 HER2 A775insYVMA; Mus musculus, BaF3, 72 hours): < 100 nM
- GI50 ([1]; Mus musculus, BaF3, 72 hours): 1000 to 5000 nM

Molecule: C=CC(=O)N(C)C/C=C/c1ccc2ncnc(Nc3ccc(Cc4ccn5ncnc5c4)c(C)c3)c2n1 [Example 56, (E)-N-(3-(4-((4-([1,2,4]triazolo[1,5-a]pyridin-7-ylmethyl)-3-methylphenyl)amino)pyrido[3,2-d]pyrimidin-6-yl)allyl)-N-methylacrylamide]
- GI50 (Ba/F3 HER2 A775insYVMA; Mus musculus, BaF3, 72 hours): < 100 nM
- GI50 ([1]; Mus musculus, BaF3, 72 hours): 100 to 1000 nM

Molecule: Cc1cc(Nc2ncnc3ccc(/C=C/CN(C)C(=O)/C=C/CN(C)C)nc23)ccc1Oc1ccc2c(c1)ncn2C [Example 32, (E)-4-(dimethylamino)-N-methyl-N-((E)-3-(4-((3-methyl-4-((1-methyl-1H-benzo[d]imidazol-5-yl)oxy)phenyl)amino)pyrido[3,2-d]pyrimidin-6-yl)allyl)but-2-enamide]
- GI50 (Ba/F3 HER2 A775insYVMA; Mus musculus, BaF3, 72 hours): 100 to 1000 nM
- GI50 ([1]; Mus musculus, BaF3, 72 hours): > 5000 nM

Molecule: C=CC(=O)N(C)CC#Cc1ncc2ncnc(Nc3ccc(Oc4ccc5c(c4)ncn5C)c(C)c3)c2n1 [Example 72]
- GI50 (Ba/F3 HER2 A775insYVMA; Mus musculus, BaF3, 72 hours): 100 to 1000 nM
- GI50 ([1]; Mus musculus, BaF3, 72 hours): < 100 nM

Molecule: C=CC(=O)N(C)CCN(C)c1ncc2ncnc(Nc3ccc(Oc4ccn5ncnc5c4)c(C)c3)c2n1 [Example 14, N-(2-((8-((4-([1,2,4]triazolo[1,5-a]pyridin-7-yloxy)-3-methylphenyl)amino)pyrimido[5,4-d]pyrimidin-2-yl)(methyl)amino)ethyl)-N-methylacrylamide]
- GI50 (Ba/F3 HER2 A775insYVMA; Mus musculus, BaF3, 72 hours): 1000 to 5000 nM
- GI50 ([1]; Mus musculus, BaF3, 72 hours): 1000 to 5000 nM

Molecule: N-(2-((4-((4-([1,2,4]triazolo[1,5-a]pyridin-7-yloxy)-3-methylphenyl)amino)pyrido[3,2-d]pyrimidin-6-yl)amino)ethyl)-N-methylacrylamide [Example 11]
- GI50 (Ba/F3 HER2 A775insYVMA; 72 hours): 100 to 1000 nM
- GI50 ([1]; 72 hours): 1000 to 5000 nM

Molecule: C=CC(=O)N(C)CC#Cc1cnc2ncnc(Nc3ccc(Oc4ccn5ncnc5c4)c(C)c3)c2c1 [Example 66, N-(3-(4-((4-([1,2,4]triazolo[1,5-a]pyridin-7-yloxy)-3-methylphenyl)amino)pyrido[2,3-d]pyrimidin-6-yl)prop-2-yn-1-yl)-N-methylacrylamide]
- GI50 (Ba/F3 HER2 A775insYVMA; Mus musculus, BaF3, 72 hours): 1000 to 5000 nM
- GI50 ([1]; Mus musculus, BaF3, 72 hours): 1000 to 5000 nM

Molecule: C=CC(=O)N(C)CC#Cc1ccc2ncnc(Nc3ccc(Oc4ccn5ncnc5c4)c(C)c3)c2c1 [Example 65, N-(3-(4-((4-([1,2,4]triazolo[1,5-a]pyridin-7-yloxy)-3-methylphenyl)amino)quinazolin-6-yl)prop-2-yn-1-yl)-N-methylacrylamide]
- GI50 (Ba/F3 HER2 A775insYVMA; Mus musculus, BaF3, 72 hours): < 100 nM
- GI50 ([1]; Mus musculus, BaF3, 72 hours): 100 to 1000 nM

Molecule: C=CC(=O)N1CCC[C@H]1C#Cc1ccc2ncnc(Nc3ccc(Oc4ccn5ncnc5c4)c(C)c3)c2n1 [Example 81, (S)-1-(2-((4-((4-([1,2,4]triazolo[1,5-a]pyridin-7-yloxy)-3-methylphenyl)amino)pyrido[3,2-d]pyrimidin-6-yl)ethynyl)pyrrolidin-1-yl)prop-2-en-1-one]
- GI50 (Ba/F3 HER2 A775insYVMA; Mus musculus, BaF3, 72 hours): < 100 nM
- GI50 ([1]; Mus musculus, BaF3, 72 hours): 100 to 1000 nM

Molecule: C=CC(=O)NC/C=C/c1ccc2ncnc(Nc3ccc(Oc4ccc5c(c4)ncn5C)c(C)c3)c2n1 [Example 33, (E)-N-(3-(4-((3-methyl-4-((1-methyl-1H-benzo[d]imidazol-5-yl)oxy)phenyl)amino)pyrido[3,2-d]pyridin-6-yl)allyl)acrylamide]
- GI50 (Ba/F3 HER2 A775insYVMA; Mus musculus, BaF3, 72 hours): < 100 nM
- GI50 ([1]; Mus musculus, BaF3, 72 hours): 1000 to 5000 nM

Molecule: C=CC(=O)N(C)CCOc1ccc2ncnc(Nc3ccc(Oc4ccc5c(c4)ncn5C)c(C)c3)c2c1 [Example 5, N-methyl-N-(2-((4-((3-methyl-4-((1-methyl-1H-benzo[d]imidazol-5-yl)oxy)phenyl)amino)quinazolin-6-yl)oxy)ethyl)acrylamide]
- GI50 (Ba/F3 HER2 A775insYVMA; Mus musculus, BaF3, 72 hours): < 100 nM
- GI50 ([1]; Mus musculus, BaF3, 72 hours): > 5000 nM

Molecule: C=CC(=O)N(C)CCCOc1ccc2ncnc(Nc3ccc(Oc4ccc5c(c4)ncn5C)c(C)c3)c2n1 [Example 9, N-methyl-N-(3-((4-((3-methyl-4-((1-methyl-1H-benzo[d]imidazol-5-yl)oxy)phenyl)amino)pyrido[3,2-d]pyrimidin-6-yl)oxy)propyl)acrylamide]
- GI50 (Ba/F3 HER2 A775insYVMA; Mus musculus, BaF3, 72 hours): 100 to 1000 nM
- GI50 ([1]; Mus musculus, BaF3, 72 hours): > 5000 nM

Molecule: C=CC(=O)N1CC(/C=C/c2ccc3ncnc(Nc4ccc(Oc5ccc6cn(C)nc6c5)c(C)c4)c3n2)C1 [Example 48, (E)-1-(3-(2-(4-((3-methyl-4-((2-methyl-2H-indazol-6-yl)oxy)phenyl)amino)pyrido[3,2-d]pyrimidin-6-yl)vinyl)azetidin-1-yl)prop-2-en-1-one]
- GI50 (Ba/F3 HER2 A775insYVMA; Mus musculus, BaF3, 72 hours): 100 to 1000 nM
- GI50 ([1]; Mus musculus, BaF3, 72 hours): > 5000 nM

Molecule: C=CC(=O)NC/C=C/c1ccc2ncnc(Nc3ccc(Oc4ccn5ccnc5c4)c(C)c3)c2n1 [Example 39, (E)-N-(3-(4-((4-(imidazo[1,2-a]pyridin-7-yloxy)-3-methylphenyl)amino)pyrido[3,2-d]pyrimidin-6-yl)allyl)acrylamide]
- GI50 (Ba/F3 HER2 A775insYVMA; Mus musculus, BaF3, 72 hours): < 100 nM
- GI50 ([1]; Mus musculus, BaF3, 72 hours): 100 to 1000 nM

Molecule: C=CC(=O)N(C)CCNc1ccc2ncnc(Nc3ccc(Oc4ccc5c(c4)ncn5C)c(C)c3)c2n1 [Example 15, N-methyl-N-(2-((4-((3-methyl-4-((1-methyl-1H-benzo[d]imidazol-5-yl)oxy)phenyl)amino)pyrido[3,2-d]pyrimidin-6-yl)amino)ethyl)acrylamide]
- GI50 (Ba/F3 HER2 A775insYVMA; Mus musculus, BaF3, 72 hours): < 100 nM
- GI50 ([1]; Mus musculus, BaF3, 72 hours): 1000 to 5000 nM

Molecule: Cc1cc(Nc2ncnc3ccc(/C=C/CN(C)C(=O)/C=C/CN4CCOCC4)nc23)ccc1Oc1ccc2c(c1)ncn2C [Example 62, (E)-N-methyl-N-((E)-3-(4-((3-methyl-4-((1-methyl-1H-benzo[d]imidazol-5-yl)oxy)phenyl)amino)pyrido[3,2-d]pyrimidin-6-yl)allyl)-4-morpholinobut-2-enamide]
- GI50 (Ba/F3 HER2 A775insYVMA; Mus musculus, BaF3, 72 hours): 100 to 1000 nM
- GI50 ([1]; Mus musculus, BaF3, 72 hours): > 5000 nM

Molecule: Cc1cc(Nc2ncnc3ccc(/C=C/CNC(=O)/C=C/[C@H]4CCCN4C)nc23)ccc1Oc1ccc2c(c1)ncn2C [Example 58, (E)-N-((E)-3-(4-((3-methyl-4-((1-methyl-1H-benzo[d]imidazol-5-yl)oxy)phenyl)amino)pyrido[3,2-d]pyrimidin-6-yl)allyl)-3-((R)-1-methylpyrrolidin-2-yl)acrylamide]
- GI50 (Ba/F3 HER2 A775insYVMA; Mus musculus, BaF3, 72 hours): 100 to 1000 nM
- GI50 ([1]; Mus musculus, BaF3, 72 hours): 1000 to 5000 nM

Molecule: C=CC(=O)N(C)CC/C=C/c1ccc2ncnc(Nc3ccc(Oc4ccc5c(c4)ncn5C)c(C)c3)c2n1 [Example 26, (E)-N-methyl-N-(4-(4-((3-methyl-4-((1-methyl-1H-benzo[d]imidazol-5-yl)oxy)phenyl)amino)pyrido[3,2-d]pyrimidin-6-yl)but-4-en-1-yl)acrylamide]
- GI50 (Ba/F3 HER2 A775insYVMA; Mus musculus, BaF3, 72 hours): < 100 nM
- GI50 ([1]; Mus musculus, BaF3, 72 hours): 1000 to 5000 nM

Molecule: C=CC(=O)N(C)CC#Cc1ccc2ncnc(Nc3ccc(Oc4ccn5ncnc5c4)c(C)c3)c2n1 [Example 68, N-(3-(4-((4-([1,2,4]triazolo[1,5-a]pyridin-7-yloxy)-3-methylphenyl)amino)pyrido[3,2-d]pyrimidin-6-yl)prop-2-yn-1-yl)-N-methylacrylamide]
- GI50 (Ba/F3 HER2 A775insYVMA; Mus musculus, BaF3, 72 hours): < 100 nM
- GI50 ([1]; Mus musculus, BaF3, 72 hours): 100 to 1000 nM

Molecule: C=CC(=O)NC/C=C/c1ccc2ncnc(Nc3ccc(Oc4ccn5ncnc5c4)c(C)c3)c2n1 [Example 38, (E)-N-(3-(4-((4-([1,2,4]triazolo[1,5-a]pyridin-7-yloxy)-3-methylphenyl)amino)pyrido[3,2-d]pyrimidin-6-yl)allyl)acrylamide]
- GI50 (Ba/F3 HER2 A775insYVMA; Mus musculus, BaF3, 72 hours): < 100 nM
- GI50 ([1]; Mus musculus, BaF3, 72 hours): 100 to 1000 nM

Molecule: C=CC(=O)N1CCCC[C@@H]1C#Cc1ncc2ncnc(Nc3ccc(Oc4ccc5c(c4)ncn5C)c(C)c3)c2n1 [Example 91, (R)-1-(2-((8-((3-methyl-4-((1-methyl-1H-benzo[d]imidazol-5-yl)oxy)phenyl)amino)pyrimido[5,4-d]pyrimidin-2-yl)ethynyl)piperidin-1-yl)prop-2-en-1-one]
- GI50 (Ba/F3 HER2 A775insYVMA; Mus musculus, BaF3, 72 hours): 100 to 1000 nM
- GI50 ([1]; Mus musculus, BaF3, 72 hours): 100 to 1000 nM

Molecule: C=CC(=O)N(C)CCOc1ccc2ncnc(Nc3ccc(Oc4ccn5ncnc5c4)c(C)c3)c2n1 [Example 3, N-(2-((4-((4-([1,2,4]triazolo[1,5-a]pyridin-7-yloxy)-3-methylphenyl)amino)pyrido[3,2-d]pyrimidin-6-yl)oxy)ethyl)-N-methylacrylamide]
- GI50 (Ba/F3 HER2 A775insYVMA; Mus musculus, BaF3, 72 hours): < 100 nM
- GI50 ([1]; Mus musculus, BaF3, 72 hours): 100 to 1000 nM

Molecule: C=CC(=O)N(C)CCOc1ncc2ncnc(Nc3ccc(Oc4ccc5c(c4)ncn5C)c(C)c3)c2n1 [Example 8, N-methyl-N-(2-((8-((3-methyl-4-((1-methyl-1H-benzo[d]imidazol-5-yl)oxy)phenyl)amino)pyrimido[5,4-d]pyrimidin-2-yl)oxy)ethyl)acrylamide]
- GI50 (Ba/F3 HER2 A775insYVMA; Mus musculus, BaF3, 72 hours): 100 to 1000 nM
- GI50 ([1]; Mus musculus, BaF3, 72 hours): 1000 to 5000 nM

Molecule: C=CC(=O)N(C)CCOc1ccc2ncnc(Nc3ccc(Oc4ccc5c(c4)ncn5C)c(C)c3)c2n1 [Example 6, N-methyl-N-(2-((4-((3-methyl-4-((1-methyl-1H-benzo[d]imidazol-5-yl)oxy)phenyl)amino)pyrido[3,2-d]pyrimidin-6-yl)oxy)ethyl)acrylamide]
- GI50 (Ba/F3 HER2 A775insYVMA; Mus musculus, BaF3, 72 hours): < 100 nM
- GI50 ([1]; Mus musculus, BaF3, 72 hours): > 5000 nM
